Laboratory results from ChEMBL document CHEMBL5154811, “Discovery of SPH5030, a Selective, Potent, and Irreversible Tyrosine Kinase Inhibitor for HER2-Amplified and HER2-Mutant Cancer Treatment” (J Med Chem, 2022).

Legend:
BT-474 [1] = experiment: Antiproliferative activity against human BT-474 cells assessed as inhibition of cell growth incubated for 72 hrs by Celltiter-Glo assay; format: functional, cell-based; conditions: BT-474, 72 h
[2] = Toxicity in BALB/c nude mouse xenografted with human NCI-N87 cells assessed as mortality at 5 to 40 mg/kg, po administered once daily for 21 days; format: organism-based; conditions: in vivo, 504 h, dose 5-40 mg/kg, time 21 day
NCI-N87 [3] = experiment: Antitumor activity against human NCI-N87 cells xenografted in BALB/c nude mouse assessed as tumor growth inhibition by measuring relative tumor growth at 5 mg/kg/day, po administered once daily for 21 days by caliper method relative to control; format: functional; conditions: time 21 day
[4] = Clearance in ICR mouse at 3 mg/kg, iv measured upto 1440 mins by LC/MS/MS analysis; format: ADME, organism-based; conditions: in vivo
[5] = Tmax in ICR mouse at 10 mg/kg, po measured upto 1440 mins by LC/MS/MS analysis; format: ADME, organism-based; conditions: in vivo
[6] = AUC (0 to t) in ICR mouse at 10 mg/kg, po measured upto 1440 mins by LC/MS/MS analysis; format: ADME, organism-based; design: time < 1440 min, dose 10 mg/kg, route po; conditions: in vivo
[7] = Oral bioavailability in ICR mouse at 10 mg/kg measured upto 1440 mins by LC/MS/MS analysis; format: ADME, organism-based; conditions: in vivo
[8] = Half life in Sprague-Dawley rat at 3 mg/kg, iv measured upto 1440 mins by LC/MS/MS analysis; format: ADME, organism-based; conditions: in vivo
[9] = Cmax in Sprague-Dawley rat at 10 mg/kg, po measured upto 1440 mins by LC/MS/MS analysis; format: ADME, organism-based; design: time < 1440 min, dose 10 mg/kg, route po; conditions: in vivo
[10] = Tmax in Sprague-Dawley rat at 10 mg/kg, po measured upto 1440 mins by LC/MS/MS analysis; format: ADME, organism-based; conditions: in vivo
[11] = AUC (0 to t) in Sprague-Dawley rat at 10 mg/kg, po measured upto 1440 mins by LC/MS/MS analysis; format: ADME, organism-based; design: dose 10 mg/kg, time < 1440 min, route po; conditions: in vivo
[12] = Half life in Sprague-Dawley rat at 10 mg/kg, po measured upto 1440 mins by LC/MS/MS analysis; format: ADME, organism-based; conditions: in vivo
[13] = Oral bioavailability in Sprague-Dawley rat at 10 mg/kg measured upto 1440 mins by LC/MS/MS analysis; format: ADME, organism-based; conditions: in vivo
[14] = AUC (0 to t) in cynomolgus monkey at 15 mg/kg, po measured upto 1440 mins by LC/MS/MS analysis; format: ADME, organism-based, Macaca fascicularis; design: time < 1440 min, dose 15 mg/kg, route po; conditions: in vivo
[15] = Oral bioavailability in cynomolgus monkey at 15 mg/kg measured upto 1440 mins by LC/MS/MS analysis; format: ADME, organism-based, Macaca fascicularis; conditions: in vivo
SK-BR-3 = experiment: Antiproliferative activity against human SK-BR-3 cells overexpressing wild type HER2 assessed as cell growth inhibition incubated for 72 hrs by Celltiter-Glo assay; format: functional, cell-based; conditions: SK-BR-3, 72 h
ES-2 = experiment: Antiproliferative activity against human ES2 cells assessed as cell growth inhibition incubated for 72 hrs by Celltiter-Glo assay; format: functional, cell-based; conditions: ES-2, 72 h
COLO-678 = experiment: Antiproliferative activity against human COLO-678 cells assessed as cell growth inhibition incubated for 72 hrs by Celltiter-Glo assay; format: functional, cell-based; conditions: COLO-678, 72 h
[16] = Antiproliferative activity against human KM12-Luc cells assessed as cell growth inhibition incubated for 72 hrs by Celltiter-Glo assay; format: functional, cell-based
[17] = target: Receptor tyrosine-protein kinase erbB-2 (Homo sapiens, UniProt P04626, D769H); experiment: Inhibition of HER2 D769H mutant (unknown origin) incubated for 120 mins in presence of 33P-ATP by P81 ion exchange cellulose chromatography
Chain of Receptor tyrosine-protein kinase erbB-2 (Homo sapiens, UniProt P04626, D769H) (P04626 23-1255 D769H limits assumed): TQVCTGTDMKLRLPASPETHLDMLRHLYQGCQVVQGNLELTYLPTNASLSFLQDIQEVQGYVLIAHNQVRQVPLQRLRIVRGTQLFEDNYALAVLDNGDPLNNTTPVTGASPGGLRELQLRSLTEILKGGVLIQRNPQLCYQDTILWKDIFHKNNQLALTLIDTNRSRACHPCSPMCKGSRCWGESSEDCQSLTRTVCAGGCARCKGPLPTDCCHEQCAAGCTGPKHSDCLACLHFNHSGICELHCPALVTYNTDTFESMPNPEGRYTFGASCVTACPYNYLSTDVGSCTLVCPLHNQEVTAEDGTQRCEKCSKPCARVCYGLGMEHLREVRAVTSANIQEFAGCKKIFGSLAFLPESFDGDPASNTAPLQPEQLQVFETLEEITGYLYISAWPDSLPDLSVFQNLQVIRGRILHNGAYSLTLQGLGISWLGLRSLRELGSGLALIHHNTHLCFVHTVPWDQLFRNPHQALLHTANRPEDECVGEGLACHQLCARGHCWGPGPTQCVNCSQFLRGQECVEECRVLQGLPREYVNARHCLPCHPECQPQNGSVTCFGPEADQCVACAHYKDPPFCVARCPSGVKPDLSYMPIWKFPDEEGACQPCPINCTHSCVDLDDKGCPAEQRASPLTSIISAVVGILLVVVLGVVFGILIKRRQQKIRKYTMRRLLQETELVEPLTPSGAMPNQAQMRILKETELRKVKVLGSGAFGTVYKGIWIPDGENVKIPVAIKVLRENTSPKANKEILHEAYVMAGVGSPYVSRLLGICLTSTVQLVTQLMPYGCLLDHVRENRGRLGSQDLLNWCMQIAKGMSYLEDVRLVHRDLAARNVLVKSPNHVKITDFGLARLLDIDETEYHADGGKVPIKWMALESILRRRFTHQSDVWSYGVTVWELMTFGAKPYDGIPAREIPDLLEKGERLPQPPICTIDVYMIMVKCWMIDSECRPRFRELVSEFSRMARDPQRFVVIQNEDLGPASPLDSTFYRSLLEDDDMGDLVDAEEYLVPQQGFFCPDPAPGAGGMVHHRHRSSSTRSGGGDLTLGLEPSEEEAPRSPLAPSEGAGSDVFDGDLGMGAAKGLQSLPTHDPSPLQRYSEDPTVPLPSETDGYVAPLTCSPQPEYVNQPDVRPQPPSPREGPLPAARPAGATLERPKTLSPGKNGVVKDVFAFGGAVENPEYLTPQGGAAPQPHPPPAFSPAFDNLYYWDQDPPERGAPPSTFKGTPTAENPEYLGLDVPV

[18] = target: Receptor tyrosine-protein kinase erbB-2 (Homo sapiens, UniProt P04626, V777L); experiment: Inhibition of HER2 V777L mutant (unknown origin) incubated for 120 mins in presence of 33P-ATP by P81 ion exchange cellulose chromatography
Chain of Receptor tyrosine-protein kinase erbB-2 (Homo sapiens, UniProt P04626, V777L) (P04626 23-1255 V777L limits assumed): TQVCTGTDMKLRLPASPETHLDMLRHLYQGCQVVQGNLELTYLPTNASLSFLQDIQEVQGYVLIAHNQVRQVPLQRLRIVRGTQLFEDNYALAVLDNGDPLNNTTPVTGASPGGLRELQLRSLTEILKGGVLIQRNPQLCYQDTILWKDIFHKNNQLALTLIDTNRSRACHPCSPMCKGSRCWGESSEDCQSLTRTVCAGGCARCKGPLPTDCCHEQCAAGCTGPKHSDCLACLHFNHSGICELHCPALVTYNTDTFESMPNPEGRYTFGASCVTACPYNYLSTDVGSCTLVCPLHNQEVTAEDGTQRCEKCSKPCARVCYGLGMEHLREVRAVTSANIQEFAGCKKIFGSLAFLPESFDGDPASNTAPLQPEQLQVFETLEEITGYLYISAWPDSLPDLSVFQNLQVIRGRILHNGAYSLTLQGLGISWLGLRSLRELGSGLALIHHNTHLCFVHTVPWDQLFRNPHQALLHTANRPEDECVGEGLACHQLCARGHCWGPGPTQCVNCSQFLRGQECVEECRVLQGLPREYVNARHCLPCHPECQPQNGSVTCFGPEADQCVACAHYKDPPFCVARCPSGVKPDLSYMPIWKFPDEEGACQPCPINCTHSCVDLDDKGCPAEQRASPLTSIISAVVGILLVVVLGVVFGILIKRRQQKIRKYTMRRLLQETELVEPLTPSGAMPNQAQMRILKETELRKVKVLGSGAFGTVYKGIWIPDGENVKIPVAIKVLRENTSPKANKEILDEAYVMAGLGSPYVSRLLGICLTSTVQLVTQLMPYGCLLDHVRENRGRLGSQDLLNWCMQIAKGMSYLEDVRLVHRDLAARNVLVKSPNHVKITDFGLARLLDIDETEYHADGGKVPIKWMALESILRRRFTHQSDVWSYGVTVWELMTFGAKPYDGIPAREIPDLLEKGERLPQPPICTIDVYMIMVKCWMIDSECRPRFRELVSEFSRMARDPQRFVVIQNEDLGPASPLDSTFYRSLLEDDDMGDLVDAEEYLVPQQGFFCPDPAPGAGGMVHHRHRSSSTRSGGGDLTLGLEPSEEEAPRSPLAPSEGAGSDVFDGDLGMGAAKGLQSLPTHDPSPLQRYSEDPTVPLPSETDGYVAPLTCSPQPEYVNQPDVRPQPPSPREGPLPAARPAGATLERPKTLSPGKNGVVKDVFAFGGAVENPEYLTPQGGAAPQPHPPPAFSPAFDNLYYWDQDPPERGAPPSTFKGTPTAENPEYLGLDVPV

BaF3 [19] = experiment: Antiproliferative activity against mouse BaF3 cells harbouring HER2 […] mutant assessed as inhibition of cell growth incubated for 72 hrs by Celltiter-Glo assay; format: functional, cell-based; conditions: BaF3, 72 h
NCI-N87 [20] = experiment: Antitumor activity against human NCI-N87 cells xenografted in BALB/c nude mouse assessed as tumor growth inhibition at 20 mg/kg/day, po administered once daily for 21 days relative to control; format: functional; conditions: NCI-N87, 504 h, time 21 day, read-out: TGI
BT-474 [21] = experiment: Antitumor activity against human BT-474 cells xenografted in BALB/c nude mouse assessed as tumor growth inhibition by measuring relative tumor growth at 5 mg/kg/day, po administered once daily for 21 days by caliper method relative to control; format: functional; conditions: time 21 day
BT-474 [22] = experiment: Antitumor activity against human BT-474 cells xenografted in BALB/c nude mouse assessed as tumor growth inhibition by measuring relative tumor growth at 10 mg/kg/day, po administered once daily for 21 days by caliper method relative to control; format: functional; conditions: time 21 day
BT-474 [23] = experiment: Antitumor activity against human BT-474 cells xenografted in BALB/c nude mouse assessed as tumor growth inhibition by measuring relative tumor growth at 20 mg/kg/day, po administered once daily for 21 days by caliper method relative to control; format: functional; conditions: time 21 day
BaF3 [24] = experiment: Antitumor activity against mouse BaF3 cells harbouring HER2 A775_G776insYVMA mutant xenografted in BALB/c nude mouse assessed as tumor growth inhibition by measuring relative tumor growth at 20 mg/kg, po qd for 13 days by caliper method relative to control; format: functional; conditions: time 13 day
BT-474 [25] = experiment: Antitumor activity against human BT-474 cells xenografted in BALB/c nude mouse assessed as tumor growth inhibition at 10 mg/kg/day, po administered once daily for 21 days relative to control; format: functional; conditions: BT-474, 504 h, time 21 day, read-out: TGI
NCI-N87 [26] = experiment: Antitumor activity against human NCI-N87 cells xenografted in BALB/c nude mouse assessed as tumor growth inhibition at 10 mg/kg/day, po administered once daily for 21 days relative to control; format: functional; conditions: NCI-N87, 504 h, time 21 day, read-out: TGI
BaF3 [27] = experiment: Antitumor activity against mouse BaF3 cells harbouring HER2 A775_G776insYVMA xenografted in BALB/c nude mouse assessed as tumor growth inhibition at 10 mg/kg/day, po qd measured for 13 days relative to control; format: functional; conditions: BaF3, 312 h, time 13 day, read-out: TGI

## CCOc1cc2ncnc(Nc3ccc(Oc4cc5nncn5cn4)c(C)c3)c2cc1NC(=O)/C(F)=C/[C@H]1CCCN1C
BT-474 [1]
  IC50: 2.01 nM
[2]
  Activity: Non-Toxic
NCI-N87 [3]
  T/C: 5.26%
[4]
  clearance: 11.7 mL/min/kg
[5]
  Tmax: 2.67 h
[6]
  AUC(0-t) at 24 h: 13100 ng·h/mL
[7]
  bioavailability: 87.7%
[8]
  half-life: 4.56 h
[9]
  Cmax: 760 ng/mL
[10]
  Tmax: 3.33 h
[11]
  AUC(0-t) at 24 h: 5470 ng·h/mL
[12]
  half-life: 4.38 h
[13]
  bioavailability: 71.3%
[14]
  AUC(0-t) at 24 h: 10400 ng·h/mL
[15]
  bioavailability: 43.4%
SK-BR-3
  IC50: 20.1 nM
ES-2
  IC50: 2720 nM
COLO-678
  IC50: 6070 nM
[16]
  IC50: 3600 nM
[17]
  IC50: 0.42 nM
[18]
  IC50: 0.16 nM
BaF3 [19]
  IC50: 6.3 nM
NCI-N87 [20]
  inhibition in vivo at 20 mg/kg/day: 114%
BT-474 [21]
  T/C: 17.68%
BT-474 [22]
  T/C: 8.31%
BT-474 [23]
  T/C: 7.68%
BaF3 [24]
  T/C: 6.89%
BT-474 [25]
  inhibition in vivo at 10 mg/kg/day: 123%
NCI-N87 [26]
  inhibition in vivo at 10 mg/kg/day: 113%
BaF3 [27]
  inhibition in vivo at 10 mg/kg/day: 95%
